Measured values: ChEMBL document CHEMBL1130039, “1,2-Diarylimidazoles as potent, cyclooxygenase-2 selective, and orally active antiinflammatory agents” (J Med Chem, 1997)
Active and inactive are the calls of the source. The rule behind the calls is not given here.

Legend:
[1] = molecular target: T1, Prostaglandin G/H synthase 1 (Homo sapiens, UniProt P23219)
Rattus norvegicus [2] = species on record: Rattus norvegicus; assay: animal or person; type: functional
Rattus norvegicus [3] = species on record: Rattus norvegicus; assay: animal or person; type: functional; remark: listed apart in the source
Rattus norvegicus [4] = species on record: Rattus norvegicus; assay: animal or person; type: functional; remark: listed apart in the source
Rattus norvegicus [5] = species on record: Rattus norvegicus; assay: animal or person; type: functional; remark: listed apart in the source
Rattus norvegicus [6] = species on record: Rattus norvegicus; assay: animal or person; conditions: read-out: Inhibition
[7] = molecular target: T2, Prostaglandin G/H synthase 2 (Homo sapiens) (UniProt P35354)
T2 sequence (whole entry): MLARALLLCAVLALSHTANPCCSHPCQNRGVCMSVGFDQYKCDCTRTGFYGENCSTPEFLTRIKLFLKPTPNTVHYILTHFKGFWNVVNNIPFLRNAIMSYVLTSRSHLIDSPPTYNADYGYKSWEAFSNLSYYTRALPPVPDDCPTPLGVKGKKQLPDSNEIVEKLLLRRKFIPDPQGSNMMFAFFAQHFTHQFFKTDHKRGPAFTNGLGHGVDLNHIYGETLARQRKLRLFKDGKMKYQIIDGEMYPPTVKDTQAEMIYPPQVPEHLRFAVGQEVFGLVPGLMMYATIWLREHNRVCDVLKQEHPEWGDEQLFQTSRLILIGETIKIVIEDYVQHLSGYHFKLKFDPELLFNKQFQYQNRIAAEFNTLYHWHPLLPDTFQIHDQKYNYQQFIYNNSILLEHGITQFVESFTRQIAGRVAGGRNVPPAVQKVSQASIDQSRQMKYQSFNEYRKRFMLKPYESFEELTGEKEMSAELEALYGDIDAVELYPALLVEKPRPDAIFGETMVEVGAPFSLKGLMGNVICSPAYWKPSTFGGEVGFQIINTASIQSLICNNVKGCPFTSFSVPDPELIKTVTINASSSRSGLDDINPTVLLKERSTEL

[8] = molecular target: T1, Prostaglandin G/H synthase 1; remark: listed apart in the source
Rattus norvegicus [9] = species on record: Rattus norvegicus; assay: animal or person; type: functional; remark: listed apart in the source
Rattus norvegicus [10] = species on record: Rattus norvegicus; assay: animal or person; type: functional; remark: listed apart in the source
Rattus norvegicus [11] = species on record: Rattus norvegicus; assay: animal or person; type: functional; remark: listed apart in the source
Rattus norvegicus [12] = species on record: Rattus norvegicus; assay: animal or person; type: functional; remark: listed apart in the source
[13] = mouse, in vivo, po, 200 mg/kg
[14] = mouse, in vivo, po, 20 mg/kg
[15] = rat, in vivo, po, 200 mg/kg
physchem = conditions: octanol/water

T1 sequence (P23219 whole entry): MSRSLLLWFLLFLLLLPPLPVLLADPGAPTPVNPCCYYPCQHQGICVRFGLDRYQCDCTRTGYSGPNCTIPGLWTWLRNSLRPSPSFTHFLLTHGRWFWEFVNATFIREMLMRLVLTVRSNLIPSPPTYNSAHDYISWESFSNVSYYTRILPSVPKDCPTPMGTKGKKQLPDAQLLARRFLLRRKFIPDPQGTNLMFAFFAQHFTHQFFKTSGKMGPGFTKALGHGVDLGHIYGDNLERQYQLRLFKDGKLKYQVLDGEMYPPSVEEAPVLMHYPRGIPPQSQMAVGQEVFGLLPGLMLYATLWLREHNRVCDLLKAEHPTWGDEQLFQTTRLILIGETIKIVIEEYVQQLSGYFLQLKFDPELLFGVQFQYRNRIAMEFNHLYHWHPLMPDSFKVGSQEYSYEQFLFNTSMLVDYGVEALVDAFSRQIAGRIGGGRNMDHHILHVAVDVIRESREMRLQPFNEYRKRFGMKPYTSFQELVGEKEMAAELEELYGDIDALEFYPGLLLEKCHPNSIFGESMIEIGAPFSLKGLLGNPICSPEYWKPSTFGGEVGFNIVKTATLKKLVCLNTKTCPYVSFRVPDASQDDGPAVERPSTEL

| IC50 [1] [µM] | Structure (SMILES) | inhibition in vivo at 2 mg/kg (Rattus norvegicus [2]) [%] | further results |
| --- | --- | --- | --- |
| > 100 | CS(=O)(=O)Cc1cn(-c2ccc(S(C)(=O)=O)cc2)c(-c2ccc(Cl)cc2)n1 | – | – |
| 91 | COc1c(C)cc(-c2nc(C(F)(F)F)cn2-c2ccc(S(C)(=O)=O)cc2)cc1C | 29 | – |
| > 100 | CS(=O)(=O)c1ccc(-n2ccnc2-c2ccccc2)cc1 | – | – |
| – | CS(=O)(=O)c1ccc(-n2cc(C(F)(F)F)nc2-c2cc(Cl)cc(Cl)c2)cc1 | 5 | – |
| – | Cc1cc(F)cc(-c2nc(C(F)(F)F)cn2-c2ccc(S(C)(=O)=O)cc2)c1 | 87 | – |
| > 100 | CS(=O)(=O)c1ccc(-n2cc(CN)nc2-c2ccc(Cl)cc2)cc1 | – | – |
| – | COc1ccc2c(c1)c(CC(=O)O)c(C)n2C(=O)c1ccc(Cl)cc1 [INDOMETHACIN] | – | ED50 (Rattus norvegicus [3]): 60 mg/kg |
| – | CS(=O)(=O)c1ccc(-n2cc(C(F)(F)F)nc2-c2ccccc2)cc1 | 98 | ED50 (Rattus norvegicus [4]): 56 mg/kg; ED50 (Rattus norvegicus [5]): 20.8 mg/kg |
| – | Cc1cc(F)cc(-c2nc(C(F)(F)F)cn2-c2ccc(S(N)(=O)=O)cc2)c1 | 80 | – |
| > 100 | Cc1cn(-c2ccc(S(C)(=O)=O)cc2)c(-c2ccc(Cl)cc2)n1 | – | inhibition in vivo at 2 mg/kg (Rattus norvegicus [6]): 53% |
| – | CS(=O)(=O)c1ccc(-n2cc(C#N)nc2-c2ccc(Cl)cc2)cc1 | 69 | – |
| – | CS(=O)(=O)c1ccc(-c2[nH]cnc2-c2ccc(F)cc2)cc1 | – | NA [7]: inactive; NA [8]: inactive |
| – | COc1c(F)cc(-c2nc(C(F)(F)F)cn2-c2ccc(S(C)(=O)=O)cc2)cc1F | 89 | ED50 (Rattus norvegicus [9]): 26 mg/kg |
| > 100 | CS(=O)(=O)c1ccc(-n2cc(CSc3ccc(Cl)cc3)nc2-c2ccc(Cl)cc2)cc1 | 0 | – |
| – | Cc1ccc(-c2nc(C(F)(F)F)cn2-c2ccc(S(C)(=O)=O)cc2)cc1C | 15 | – |
| – | Cc1cc(-c2nc(C(F)(F)F)cn2-c2ccc(S(C)(=O)=O)cc2)ccc1Cl | 64 | – |
| > 100 | COc1c(Cl)cc(-c2nc(C(F)(F)F)cn2-c2ccc(S(C)(=O)=O)cc2)cc1Cl | 25 | – |
| – | Cc1cc(-c2nc(C(F)(F)F)cn2-c2ccc(S(C)(=O)=O)cc2)ccc1F | 90 | – |
| – | CSc1ccc(-c2nc(C(F)(F)F)cn2-c2ccc(S(C)(=O)=O)cc2)cc1Cl | 0 | – |

| IC50 [1] [µM] | Structure (SMILES) | inhibition in vivo at 2 mg/kg (Rattus norvegicus [2]) [%] | further results |
| --- | --- | --- | --- |
| – | COc1ccc(-c2nc(C(F)(F)F)cn2-c2ccc(S(C)(=O)=O)cc2)cc1Cl | 92 | ED50 (Rattus norvegicus [10]): 35 mg/kg; ED50 (Rattus norvegicus [11]): 29 mg/kg |
| – | COc1cccc(-c2nc(C(F)(F)F)cn2-c2ccc(S(C)(=O)=O)cc2)c1 | 45 | – |
| > 100 | CS(=O)(=O)c1ccc(-n2cc(COc3ccc(Cl)cc3)nc2-c2ccc(Cl)cc2)cc1 | 15 | – |
| – | CN(C)c1ccc(-c2nc(C(F)(F)F)cn2-c2ccc(S(C)(=O)=O)cc2)cc1Cl | 87 | – |
| – | NS(=O)(=O)c1ccc(-n2cc(C(F)(F)F)nc2-c2ccc(F)c(F)c2)cc1 | 83 | – |
| > 100 | Cc1cc(Cl)cc(-c2nc(C(F)(F)F)cn2-c2ccc(S(N)(=O)=O)cc2)c1 | 61 | – |
| – | Cc1ccc(-c2nc(C(F)(F)F)cn2-c2ccc(S(C)(=O)=O)cc2)cc1Cl | 10 | ED50 (Rattus norvegicus [4]): 55 mg/kg; ED50 (Rattus norvegicus [12]): 20.9 mg/kg |
| – | Cc1cccc(-c2nc(C(F)(F)F)cn2-c2ccc(S(C)(=O)=O)cc2)c1 | 77 | Toxicity [13]: 0; ED50 (Rattus norvegicus [4]): 46 mg/kg; Toxicity [14]: 0; ED50 (Rattus norvegicus [5]): 23 mg/kg |
| – | COc1c(F)cc(-c2nc(C(F)(F)F)cn2-c2ccc(S(N)(=O)=O)cc2)cc1F | 100 | – |
| – | COc1cc(-c2nc(C(F)(F)F)cn2-c2ccc(S(N)(=O)=O)cc2)ccc1Cl | 100 | – |
| > 100 | CS(=O)(=O)c1ccc(-n2cc(-c3ccccc3)nc2-c2ccc(Cl)cc2)cc1 | 6 | – |
| – | Cc1ccccc1-c1nc(C(F)(F)F)cn1-c1ccc(S(C)(=O)=O)cc1 | 95 | ED50 (Rattus norvegicus [4]): 43 mg/kg; Toxicity [15]: 0; ED50 (Rattus norvegicus [5]): 17.8 mg/kg |
| > 100 | Cc1cn(-c2ccc(F)cc2)c(-c2ccc(S(C)(=O)=O)cc2)n1 | – | – |
| > 100 | CS(=O)(=O)c1ccc(-n2cc(CF)nc2-c2ccc(Cl)cc2)cc1 | 36 | – |
| > 100 | CN(C)c1cc(-c2nc(C(F)(F)F)cn2-c2ccc(S(C)(=O)=O)cc2)ccc1Cl | 69 | – |
| 1.9 | NS(=O)(=O)c1ccc(-n2cc(C(F)(F)F)nc2-c2ccc(F)cc2)cc1 | 98 | – |
| – | CS(=O)(=O)c1ccc(-n2cc(C(F)(F)F)nc2-c2cccc(C(F)(F)F)c2)cc1 | 42 | – |
| – | Cc1ccc(-c2nc(C(F)(F)F)cn2-c2ccc(S(C)(=O)=O)cc2)cc1F | 47 | – |
| – | CS(=O)(=O)c1ccc(-n2cc(C(F)(F)F)nc2-c2ccccc2F)cc1 | 97 | – |

| IC50 [1] [µM] | Structure (SMILES) | inhibition in vivo at 2 mg/kg (Rattus norvegicus [2]) [%] | further results |
| --- | --- | --- | --- |
| – | CS(=O)(=O)c1ccc(-n2cc(C(F)(F)F)nc2-c2ccc3c(c2)OCO3)cc1 | 78 | – |
| – | COc1cc(-c2nc(C(F)(F)F)cn2-c2ccc(S(C)(=O)=O)cc2)ccc1Cl | 0 | – |
| 67 | CS(=O)(=O)c1ccc(-n2cc(C(F)(F)F)nc2-c2cc(F)cc(C(F)(F)F)c2)cc1 | – | – |
| – | CS(=O)(=O)c1ccc(-n2cc(C(F)(F)F)nc2-c2cccc(Br)c2)cc1 | 84 | – |
| > 100 | COc1c(Br)cc(-c2nc(C(F)(F)F)cn2-c2ccc(S(C)(=O)=O)cc2)cc1Br | 0 | – |
| – | CS(=O)(=O)c1ccc(-n2cc(C(F)(F)F)nc2-c2cccc(F)c2)cc1 | 88 | – |
| – | COc1ccc(-c2nc(C(F)(F)F)cn2-c2ccc(S(N)(=O)=O)cc2)cc1F | 89 | ED50 (Rattus norvegicus [4]): 36 mg/kg; ED50 (Rattus norvegicus [3]): 19 mg/kg |
| > 100 | CSCc1cn(-c2ccc(S(C)(=O)=O)cc2)c(-c2ccc(Cl)cc2)n1 | 10 | – |
| – | Cc1cccc(-c2nc(C(F)(F)F)cn2-c2ccc(S(N)(=O)=O)cc2)c1 | 95 | – |
| – | CS(=O)(=O)c1ccc(-n2cc(C(F)(F)F)nc2-c2ccc(Cl)cc2)cc1 | 98 | ED50 (Rattus norvegicus [5]): 9 mg/kg; logP (physchem): 3.3 |
| 4.5 | NS(=O)(=O)c1ccc(-n2cc(C(F)(F)F)nc2-c2cccc(Br)c2)cc1 | – | – |
| > 100 | CN(C)c1c(Cl)cc(-c2nc(C(F)(F)F)cn2-c2ccc(S(C)(=O)=O)cc2)cc1Cl | 25 | – |
| – | CS(=O)(=O)c1ccc(-n2cc(C(F)(F)F)nc2-c2ccc(F)c(F)c2)cc1 | 87 | – |
| – | Cc1ccc(-c2nc(C(F)(F)F)cn2-c2ccc(S(N)(=O)=O)cc2)cc1 | 63 | – |
| > 100 | COCc1cccc(-c2nc(C(F)(F)F)cn2-c2ccc(S(C)(=O)=O)cc2)c1 | – | – |
| > 100 | Cc1ccc(F)cc1-c1nc(C(F)(F)F)cn1-c1ccc(S(C)(=O)=O)cc1 | – | – |
| – | CSc1ccc(-c2nc(C(F)(F)F)cn2-c2ccc(S(C)(=O)=O)cc2)cc1 | 79 | – |
| > 100 | Cc1cccc(Cl)c1-c1nc(C(F)(F)F)cn1-c1ccc(S(C)(=O)=O)cc1 | – | – |
